Measured values published in patent US6465429B1, “Antimicrobial cationic peptides” (priority 1995, dated 2002).
Values belong to the compound of their own block, whether it stands above or below them.

Tests used:
X. maltophila = assay: Synergy of peptide and antibiotic, MIC and FIC (checkerboard); format: cell-based; conditions: agent alone
Procedure: (§1) FICs are performed by checkerboard titrations of peptides in one dimension of a microtiter plate, and of antibiotics in the other dimension, for example. The FIC is calculated by looking at the impact of one antibiotic on the MIC of the other and vice versa. […] Preferably, an FIC of less than 0.5 is obtained for synergism. As used herein, FIC can be determined as follows: [formula]
(§2) Synergism is identified as an FIC of about ≦0.5.

E. cloacae = assay: as above; format: cell-based; conditions: Enterobacter cloacae, agent alone
Procedure: as §1, §2

A. calcoaceticus = assay: as above; format: cell-based; conditions: Acinetobacter calcoaceticus, agent alone
Procedure: as §1, §2

P. aeruginosa = assay: microbe, parasite or virus in culture; conditions: agent alone
Procedure: as §1, §2

E. coli ML 35 = assay: Inner membrane permeabilization (β-galactosidase, ONPG); format: cell-based
Procedure: Inner membrane permeability was determined by measurement in E. coli ML 35 of β-galactosidase activity using ONPG as a substrate. Normally ONPG cannot pass across the cytoplasmic membrane to permit hydrolysis by the cytoplasmic enzyme β-galactosidase. However, cationic peptides, by permeabilizing the inner membrane, unmasks this enzyme leading to color development as ONP is released. […] Addition of citrate increased the lag time before the peptides were able to permeabilize the membranes. When the experiments were executed in cation adjusted media (CAMHB), the lag time was increased up to 30 minutes.

[1] = α helical content by CD spectra; format: physicochemical
Procedure: The α helical content of the peptides were measured in buffer, liposomes and 20% Hexafluoroisopropanol (HFPIP). The liposomes constituted of POPC alone or POPC PC and 30% POPG (Table 7).

[2] = Dansyl polymyxin displacement assay; format: binding; conditions: Dansyl polymyxin displacement from LPS
Text: In addition, the peptides of SEQ ID NO: 5-8 also bound effectively to LPS with high affinity based on Dansyl polymyxin displacement assays (Table 5).

Red Blood Cells = assay: Red Blood Cell lysis; format: cell-based
[3] = X. maltophila isolate 37, strain 3095
[4] = X. maltophila isolate 38, strain 7901
[5] = X. maltophila isolate 39, strain B3110.1
[6] = X. maltophila isolate 40, strain R1302-1
[7] = X. maltophila isolate 41, strain R4230
[8] = X. maltophila isolate 42, strain TF29-1
[9] = X. maltophila isolate 43, strain TF29-2
[10] = X. maltophila isolate 44, strain W6896-2
[11] = E. cloacae isolate 12, strain ATCC 13047
[12] = E. cloacae isolate 13, strain 37-1
[13] = E. cloacae isolate 14, strain 938-2
[14] = E. cloacae isolate 15, strain B5546
[15] = E. cloacae isolate 16, strain R4148
[16] = E. cloacae isolate 17, strain R4148-2
[17] = E. cloacae isolate 18, strain 3077
[18] = E. cloacae isolate 19, strain 3356
[19] = E. cloacae isolate 20, strain 14269
[20] = E. cloacae isolate 21, strain 14661
[21] = E. cloacae isolate 22, strain 18801
[22] = A. calcoaceticus isolate 1, strain ATCC 23055
[23] = A. calcoaceticus isolate 3, strain 27
[24] = A. calcoaceticus isolate 4, strain 28
[25] = A. calcoaceticus isolate 5, strain 8220
[26] = A. calcoaceticus isolate 6, strain 8221
[27] = A. calcoaceticus isolate 7, strain 8222
[28] = A. calcoaceticus isolate 9, strain 8224
[29] = A. calcoaceticus isolate 10, strain 8225
[30] = A. calcoaceticus isolate 11, strain 8226
[31] = Pseudomonas aeruginosa, P. aeruginosa isolate 24, strain 34
[32] = Pseudomonas aeruginosa, P. aeruginosa isolate 25, strain 923-1
[33] = Pseudomonas aeruginosa, P. aeruginosa isolate 26, strain 3101
[34] = Pseudomonas aeruginosa, P. aeruginosa isolate 27, strain 14644
[35] = Pseudomonas aeruginosa, P. aeruginosa isolate 28, strain 15036
[36] = Pseudomonas aeruginosa, P. aeruginosa isolate 29, strain 15545
[37] = Pseudomonas aeruginosa, P. aeruginosa isolate 30, strain B3999-1
[38] = Pseudomonas aeruginosa, P. aeruginosa isolate 31, strain U7688-1
[39] = Pseudomonas aeruginosa, P. aeruginosa isolate 32, strain W2897-1

MIC (X. maltophila; X. maltophila isolate 34, strain ATCC 13637): 1020 µg/mL
MIC (X. maltophila; X. maltophila isolate 36, strain 16): 1020 µg/mL
MIC (X. maltophila; [3]): 512 µg/mL
MIC (X. maltophila; [4]): 512 µg/mL
MIC (X. maltophila; [5]): 512 µg/mL
MIC (X. maltophila; [6]): 512 µg/mL
MIC (X. maltophila; [7]): 1020 µg/mL
MIC (X. maltophila; [8]): 1020 µg/mL
MIC (X. maltophila; [9]): 1020 µg/mL
MIC (X. maltophila; [10]): 1020 µg/mL
MIC (X. maltophila; X. maltophila isolate 45, strain W11291): 512 µg/mL
MIC (E. cloacae; [11]): 8 µg/mL
MIC (E. cloacae; [12]): 4 µg/mL
MIC (E. cloacae; [13]): 8 µg/mL
MIC (E. cloacae; [14]): 8 µg/mL
MIC (E. cloacae; [15]): 1020 µg/mL
MIC (E. cloacae; [16]): 1020 µg/mL
MIC (E. cloacae; [17]): 8 µg/mL
MIC (E. cloacae; [18]): 64 µg/mL
MIC (E. cloacae; [19]): 1020 µg/mL
MIC (E. cloacae; [20]): 16 µg/mL
MIC (E. cloacae; [21]): 4 µg/mL
MIC (A. calcoaceticus; [22]): 8 µg/mL
MIC (A. calcoaceticus; [23]): 16 µg/mL
MIC (A. calcoaceticus; [24]): 4 µg/mL
MIC (A. calcoaceticus; [25]): 16 µg/mL
MIC (A. calcoaceticus; [26]): 16 µg/mL
MIC (A. calcoaceticus; [27]): 32 µg/mL
MIC (A. calcoaceticus; [28]): 256 µg/mL
MIC (A. calcoaceticus; [29]): 32 µg/mL
MIC (A. calcoaceticus; [30]): 32 µg/mL
MIC (A. calcoaceticus; A. calcoaceticus isolate 2, strain 23): 1020 µg/mL
MIC (P. aeruginosa; [31]): 1020 µg/mL
MIC (P. aeruginosa; [32]): 64 µg/mL
MIC (P. aeruginosa; [33]): 64 µg/mL
MIC (P. aeruginosa; [34]): 512 µg/mL
MIC (P. aeruginosa; [35]): 1020 µg/mL
MIC (P. aeruginosa; [36]): 512 µg/mL
MIC (P. aeruginosa; [37]): 512 µg/mL
MIC (P. aeruginosa; [38]): 512 µg/mL
MIC (P. aeruginosa; [39]): 64 µg/mL
Compound: CCN1CCN(C(=O)N[C@@H](C(=O)N[C@@H]2C(=O)N3[C@@H]2SC(C)(C)[C@@H]3C(=O)O)c2ccccc2)C(=O)C1=O [Piperacillin]

Compound: NC[C@H]1O[C@H](O[C@H]2[C@H](O)[C@@H](O[C@H]3O[C@H](CO)[C@@H](O)[C@H](N)[C@H]3O)[C@H](N)C[C@@H]2N)[C@H](N)C[C@@H]1O [Tobramycin]
MIC (X. maltophila; X. maltophila isolate 35, strain 6): 4 µg/mL
MIC (X. maltophila; [3]): 32 µg/mL
MIC (X. maltophila; [4]): 32 µg/mL
MIC (X. maltophila; [5]): 32 µg/mL
MIC (X. maltophila; [6]): 32 µg/mL
MIC (X. maltophila; [7]): 16 µg/mL
MIC (X. maltophila; [8]): 2 µg/mL
MIC (X. maltophila; [9]): 2 µg/mL
MIC (X. maltophila; [10]): 16 µg/mL
MIC (E. cloacae; [11]): 1 µg/mL
MIC (E. cloacae; [12]): 1 µg/mL
MIC (E. cloacae; [13]): 2 µg/mL
MIC (E. cloacae; [14]): 2 µg/mL
MIC (E. cloacae; [15]): 1 µg/mL
MIC (E. cloacae; [16]): 1 µg/mL
MIC (E. cloacae; [17]): 1 µg/mL
MIC (E. cloacae; [18]): 1 µg/mL
MIC (E. cloacae; [19]): 1 µg/mL
MIC (E. cloacae; [20]): 1 µg/mL
MIC (E. cloacae; [21]): 1 µg/mL
MIC (A. calcoaceticus; [22]): 4 µg/mL
MIC (A. calcoaceticus; [23]): 1 µg/mL
MIC (A. calcoaceticus; [24]): 128 µg/mL
MIC (A. calcoaceticus; [25]): 4 µg/mL
MIC (A. calcoaceticus; [26]): 4 µg/mL
MIC (A. calcoaceticus; [27]): 4 µg/mL
MIC (A. calcoaceticus; A. calcoaceticus isolate 8, strain 8223): 4 µg/mL
MIC (A. calcoaceticus; [28]): 4 µg/mL
MIC (A. calcoaceticus; [29]): 4 µg/mL
MIC (A. calcoaceticus; [30]): 4 µg/mL
MIC (P. aeruginosa; Pseudomonas aeruginosa, P. aeruginosa isolate 23, strain ATCC 27853): 1 µg/mL
MIC (P. aeruginosa; [31]): 64 µg/mL
MIC (P. aeruginosa; [32]): 1 µg/mL
MIC (P. aeruginosa; [33]): 1 µg/mL
MIC (P. aeruginosa; [34]): 2 µg/mL
MIC (P. aeruginosa; [35]): 1 µg/mL
MIC (P. aeruginosa; [36]): 2 µg/mL
MIC (P. aeruginosa; [37]): 2 µg/mL
MIC (P. aeruginosa; [38]): 1 µg/mL
MIC (P. aeruginosa; [39]): 1 µg/mL
MIC (P. aeruginosa; Pseudomonas aeruginosa, P. aeruginosa isolate 33, strain W5483-2): 1 µg/mL
MIC (P. aeruginosa; Table 33, P. aeruginosa isolate 23, strain ATCC 27853): 1 μg · mL^1
MIC (P. aeruginosa; Table 33, P. aeruginosa isolate 24, strain 34): 64 μg · mL^1
MIC (P. aeruginosa; Table 33, P. aeruginosa isolate 25, strain 923-1): 1 μg · mL^1
MIC (P. aeruginosa; Table 33, P. aeruginosa isolate 26, strain 3101): 1 μg · mL^1
MIC (P. aeruginosa; Table 33, P. aeruginosa isolate 27, strain 14644): 1 μg · mL^1
MIC (P. aeruginosa; Table 33, P. aeruginosa isolate 28, strain 15036): 1 μg · mL^1
MIC (P. aeruginosa; Table 33, P. aeruginosa isolate 29, strain 15545): 2 μg · mL^1
MIC (P. aeruginosa; Table 33, P. aeruginosa isolate 30, strain B3999-1): 1 μg · mL^1
MIC (P. aeruginosa; Table 33, P. aeruginosa isolate 31, strain U7688-1): 2 μg · mL^1
MIC (P. aeruginosa; Table 33, P. aeruginosa isolate 32, strain W2897-1): 1 μg · mL^1
MIC (P. aeruginosa; Table 33, P. aeruginosa isolate 33, strain W5483-2): 2 μg · mL^1

Compound: CC[C@H](C)[C@H](NC(=O)[C@H](CC(C)C)NC(=O)[C@H](C)NC(=O)[C@@H]1CCCN1C(=O)[C@H](CC(C)C)NC(=O)CNC(=O)[C@@H](NC(=O)[C@@H](NC(=O)[C@H](CC(C)C)NC(=O)[C@@H](NC(=O)[C@H](CCCCN)NC(=O)[C@H](CCCCN)NC(=O)[C@@H](NC(=O)[C@H](C)NC(=O)[C@@H](NC(=O)[C@@H](NC(=O)[C@H](CC(C)C)NC(=O)[C@H](CCCCN)NC(=O)[C@H](CCCCN)NC(=O)[C@@H](NC(=O)[C@H](Cc1ccccc1)NC(=O)[C@H](CCC(=O)O)NC(=O)[C@H](CCCCN)NC(=O)[C@H](Cc1c[nH]c2ccccc12)NC(=O)[C@@H](N)CCCCN)[C@@H](C)CC)[C@@H](C)O)[C@@H](C)O)C(C)C)C(C)C)[C@@H](C)O)[C@@H](C)O)C(=O)N[C@@H](CO)C(=O)O [compound 492]
Lag Time (E. coli ML 35; inner membrane permeabilization, E. coli ML 35): 68 s
Rate of Hydrolysis (E. coli ML 35; inner membrane permeabilization, E. coli ML 35, ONPG): 0.23 ΔAU min^−1
% α helicity ([1]; 20% HFIP): 43%
% α helicity ([1]; Buffer): 0%
% α helicity ([1]; POPC Liposomes): 42%
% α helicity ([1]; POPC/POPG Liposomes): 19%
Imax [2]: 48%
RBC Lysis (Red Blood Cells): >55 µg/mL

Compound: H-KWKSFIKKLTSAAKKVVTTAKPLISS-OH [MBI 26]
effect of 5 mM Mg++ on inner membrane permeabilization (E. coli ML 35; 4 ug peptide, +5 mM Mg): large inhibitory effect
effect of 100 mM NaCl on inner membrane permeabilization (E. coli ML 35; 4 ug peptide, +100 mM NaCl): little effect
RBC Lysis (Red Blood Cells): >55 µg/mL
